One experiment deals with T1, vanilloid receptor 1 (VR1/TRPV1 receptor) (Homo sapiens, UniProt Q8NER1).
T1 construct: expressed in transfected cells; host or cells: CHO K1 cells (ECACC), stably transfected
T1 sequence (Q8NER1 whole entry): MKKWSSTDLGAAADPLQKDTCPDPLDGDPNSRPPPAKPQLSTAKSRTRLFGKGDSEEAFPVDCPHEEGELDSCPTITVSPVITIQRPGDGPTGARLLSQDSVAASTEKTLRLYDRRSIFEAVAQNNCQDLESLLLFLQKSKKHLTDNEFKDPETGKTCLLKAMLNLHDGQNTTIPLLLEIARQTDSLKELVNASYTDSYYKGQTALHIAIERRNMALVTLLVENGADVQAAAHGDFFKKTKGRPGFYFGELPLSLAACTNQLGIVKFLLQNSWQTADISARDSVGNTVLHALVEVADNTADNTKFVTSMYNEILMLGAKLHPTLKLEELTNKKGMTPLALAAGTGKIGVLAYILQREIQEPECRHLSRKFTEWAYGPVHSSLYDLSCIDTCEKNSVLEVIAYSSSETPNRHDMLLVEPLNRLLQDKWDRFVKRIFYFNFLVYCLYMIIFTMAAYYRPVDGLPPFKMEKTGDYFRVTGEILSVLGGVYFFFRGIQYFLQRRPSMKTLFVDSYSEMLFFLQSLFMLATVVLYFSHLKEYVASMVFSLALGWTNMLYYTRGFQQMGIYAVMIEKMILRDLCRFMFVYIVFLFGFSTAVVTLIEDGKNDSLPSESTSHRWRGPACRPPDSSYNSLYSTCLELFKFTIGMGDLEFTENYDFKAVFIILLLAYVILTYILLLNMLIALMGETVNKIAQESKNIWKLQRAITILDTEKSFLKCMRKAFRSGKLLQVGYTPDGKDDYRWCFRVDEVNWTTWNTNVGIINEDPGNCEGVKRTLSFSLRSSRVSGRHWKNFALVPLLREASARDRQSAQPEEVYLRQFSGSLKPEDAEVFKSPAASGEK
Nature of the experiment: VR1/TRPV1 receptor affinity, capsaicin stimulus (human). The class given is cell-based, human being. Set-up: key to (f) Ki (human being) [nM] Cap: result in words: AG=agonist; pAG=partial agonist; NE=no effect. As to conditions: @ 5 μM, Tables 8-12.
As for “2-Chloro-4-[[[2-(3-chlorophenyl)-5-(trifluoromethyl)-2H-pyrazol-3-yl]-methyl-carbamoyl]amino]-benzoic acid [Example E54]”, the “(f) Ki (human being) [nM] Cap: inhibition (as a percentage)” value turned out to be 20% @ 5 μM.

The same experiment, now with this note: @ 5 μM, Tables 8-12, read-out: (f) Ki (human being) [nM] Cap: inhibition (as a percentage).
With `CC(C(=O)NCc1cc(C(F)(F)F)nn1-c1cccc(Cl)c1)c1ccc(C(=O)N2CCOCC2)c(F)c1` (centres unmarked) [Example E16, N-[[2-(3-Chlorophenyl)-5-(trifluoromethyl)-2H-pyrazol-3-yl]-methyl]-2-[3-fluoro-4-(morpholine-4-carbonyl)-phenyl]-propionamide], the inhibition (as a rule, how much of the control response was suppressed) at 5 µM was 32%.
On the same count and under the same terms, the result for `O=C(NCc1cc(C(F)(F)F)nn1-c1cccc(F)c1)Nc1ccc(N2CCCC2)c(F)c1` [Example C4, 1-[[2-(3-Fluorophenyl)-5-(trifluoromethyl)-2H-pyrazol-3-yl]-methyl]-3-(3-fluoro-4-pyrrolidin-1-yl-phenyl)-urea] reads 13%.

Staying with this experiment, now noted: Tables 8-12.
Regarding `CC(C(=O)NCc1cc(C(C)(C)C)nn1-c1cccc(Cl)c1)c1ccc(C(O)CO)cc1` (centres unmarked) [Example A147, N-[[5-tert-Butyl-2-(3-chlorophenyl)-2H-pyrazol-3-yl]-methyl]-2-[4-(1,2-dihydroxy-ethyl)-phenyl]-propionamide], the “(f) Ki (human being) [nM] Cap: result in words” value (“(f) Ki (human being) … in words” below) is “AG”.
As to `COc1cc(C(C)C(=O)NCc2cc(C(C)(C)C)nn2-c2cccc(Cl)c2)ccc1CO` (centres unmarked) [Example A49, N-[[5-tert-Butyl-2-(3-chlorophenyl)-2H-pyrazol-3-yl]-methyl]-2-[4-(hydroxymethyl)-3-methoxy-phenyl]-propionamide], the “(f) Ki (human being) … in words” value is reported as “AG”.
For `CC(C(=O)NCc1cc(C(C)(C)C)nn1-c1cccc(C(F)(F)F)c1)c1ccc(CO)c(F)c1` (centres unmarked) [Example A47, N-[[5-tert-Butyl-2-[3-(trifluoromethyl)phenyl]-2H-pyrazol-3-yl]-methyl]-2-[3-fluoro-4-(hydroxymethyl)-phenyl]-propionamide], the “(f) Ki (human being) … in words” value is given as “AG”.
Still for that read-out and setting: the same measure for `CC(C(=O)NCc1cc(C(C)(C)C)nn1-c1cccc(F)c1)c1ccc(CO)c(F)c1` (centres unmarked) [Example A37, N-[[5-tert-Butyl-2-(3-fluorophenyl)-2H-pyrazol-3-yl]-methyl]-2-[3-fluoro-4-(hydroxymethyl)-phenyl]-propionamide]: “AG”.

Still in this experiment, the particulars now being: Tables 8-12, read-out: (f) Ki (human being) [nM] Cap.
On to `CC(C(=O)NCc1cc(C(F)(F)F)nn1-c1cccc(C(F)(F)F)c1)c1ccc(CNS(C)(=O)=O)c(F)c1` (centres unmarked) [Example B8, 2-[3-Fluoro-4-(methanesulfonamido-methyl)-phenyl]-N-[[5-(trifluoromethyl)-2-[3-(trifluoromethyl)phenyl]-2H-pyrazol-3-yl]-methyl]-propionamide], for which the Ki (as a rule, the equilibrium dissociation constant of an inhibitor or competing ligand from its target) was found to be 1 nM.
Turning to `CCNCc1ccc(NC(=O)NCc2cc(C(C)(C)C)nn2-c2cccc(Cl)c2)cc1F` [Example B25, 1-[[5-tert-Butyl-2-(3-chlorophenyl)-2H-pyrazol-3-yl]-methyl]-3-[4-(ethylamino-methyl)-3-fluoro-phenyl]-urea], the Ki is 45 nM.
In the case of `CC(C(=O)NCc1cc(C(F)(F)F)nn1-c1ccc(F)c(Cl)c1)c1ccc(CNS(C)(=O)=O)c(F)c1` (centres unmarked) [Example B2, N-[[2-(3-Chloro-4-fluoro-phenyl)-5-(trifluoromethyl)-2H-pyrazol-3-yl]-methyl]-2-[3-fluoro-4-(methanesulfonamido-methyl)-phenyl]-propionamide], the Ki amounted to 2.4 nM.
For “4-[1-[[5-tert-Butyl-2-(3-chlorophenyl)-2H-pyrazol-3-yl]-methyl-carbamoyl]-ethyl]-N-(4-fluorophenyl)-benzamide [Example E42]”, the inhibition constant (Ki) stood at 1 nM.
On the same count and under the same terms, the same measure for “N-[[4-[[[5-tert-Butyl-2-(3-chlorophenyl)-2H-pyrazol-3-yl]-methyl-carbamoyl]amino]-2-fluoro-phenyl]-methyl]-acetamide [Example B34]”: 15 nM; for `CC(C(=O)NCc1cc(C(C)(C)C)nn1-c1cccc(Cl)c1)c1ccc(C(=O)Nc2ccc(F)cc2)c(F)c1` (centres unmarked) [Example E44, 4-[1-[[5-tert-Butyl-2-(3-chlorophenyl)-2H-pyrazol-3-yl]-methyl-carbamoyl]-ethyl-]-2-fluoro-N-(4-fluorophenyl)-benzamide]: 1 nM; for `CCS(=O)(=O)NCc1ccc(NC(=O)NCc2cc(C(C)(C)C)nn2-c2cccc(C)c2)cc1` [Example B92, 1-[[5-tert-Butyl-2-(m-tolyl)-2H-pyrazol-3-yl]-methyl]-3-[4-[[(ethylsulfonyl)amino]-methyl]-phenyl]-urea]: 67 nM.
Same read-out and setting: the result for “4-[1-[[2-(3-Chlorophenyl)-5-(trifluoromethyl)-2H-pyrazol-3-yl]-methyl-carbamoyl]-ethyl]-2-fluoro-N-methyl-benzamide [Example E11]” reads 11 nM.
The same measure, in the same setting: the same measure for “4-[[[5-tert-Butyl-2-(3-chlorophenyl)-2H-pyrazol-3-yl]-methyl-carbamoyl]amino]-2-fluoro-N,N-dimethyl-benzamide [Example E12]”: 62 nM.
Consider `CC(C)(C)c1cc(CNC(=O)Nc2ccc(CNS(C)(=O)=O)c(F)c2)n(-c2cccc(F)c2)n1` [Example B50, 1-[[5-tert-Butyl-2-(3-fluorophenyl)-2H-pyrazol-3-yl]-methyl]-3-[3-fluoro-4-(methanesulfonamido-methyl)-phenyl]-urea], for which the Ki is 15 nM.
As to “4-[1-[[5-tert-Butyl-2-(3-chloro phenyl)-2H-pyrazol-3-yl]-methyl-carbamoyl]-ethyl]-N-(3-fluorophenyl)-benzamide [Example E40]”, the Ki is 4 nM.
On the same count and under the same terms, the result for `CC(C(=O)NCc1cc(C(F)(F)F)nn1-c1cccc(Cl)c1)c1ccc(C(N)=O)c(F)c1` (centres unmarked) [Example E4, 4-[1-[[2-(3-Chlorphenyl)-5-(trifluormethyl)-2H-pyrazol-3-yl]-methyl-carbamoyl]-ethyl]-2-fluoro-benzamide] reads 8 nM.
In the case of `CNCc1ccc(C(C)C(=O)NCc2cc(C(C)(C)C)nn2-c2cccc(Cl)c2)cc1F` (centres unmarked) [Example B63, N-[[5-tert-Butyl-2-(3-chlorophenyl)-2H-pyrazol-3-yl]-methyl]-2-[3-fluoro-4-(methylamino-methyl)-phenyl]-propionamide], the Ki turned out to be 30 nM.
The same measure, in the same setting: the result for `CS(=O)(=O)NCc1ccc(NC(=O)NCc2cc(C(F)(F)F)nn2-c2cccc(C(F)(F)F)c2)cc1F` [Example B55, 1-[3-Fluoro-4-(methanesulfonamido-methyl)-phenyl]-3-[[5-(trifluoromethyl)-2-[3-(trifluoromethyl)phenyl]-2H-pyrazol-3-yl]-methyl]-urea] reads 27 nM; that for “4-[1-[[2-(3-Chlorophenyl)-5-(trifluoromethyl)-2H-pyrazol-3-yl]-methyl-carbamoyl]-ethyl]-2-fluoro-N-thiazol-2-yl-benzamide [Example E52]”, 59 nM.
Still for that read-out and setting: the same measure for `Cc1cccc(-n2nc(C(F)(F)F)cc2CNC(=O)C(C)c2ccc(CNS(C)(=O)=O)c(F)c2)c1` (centres unmarked) [Example B68, 2-[3-Fluoro-4-(methanesulfonamido-methyl)-phenyl]-N-[[2-(m-tolyl)-5-(trifluoromethyl)-2H-pyrazol-3-yl]-methyl]-propionamide]: 4 nM.
Take `CC(C(=O)NCc1cc(C2CC2)nn1-c1cccc(Cl)c1)c1ccc(CNS(N)(=O)=O)c(F)c1` (centres unmarked) [Example B95, N-[[2-(3-Chlorophenyl)-5-cyclopropyl-2H-pyrazol-3-yl]-methyl]-2-[3-fluoro-4-[(sulfamoylamino)-methyl]-phenyl]-propionamide]: the Ki turned out to be 22 nM.
As for `CC(C)(C)c1cc(CNC(=O)Nc2ccc(CNS(C)(=O)=O)cc2)n(-c2cccc(Cl)c2)n1` [Example B28, 1-[[5-tert-Butyl-2-(3-chlorophenyl)-2H-pyrazol-3-yl]-methyl]-3-[4-(methanesulfonamido-methyl)-phenyl]-urea], the Ki was 11 nM.
On to `COc1cc(NC(=O)NCc2cc(C(C)(C)C)nn2-c2cccc(Cl)c2)ccc1CNS(C)(=O)=O` [Example B11, 1-[[5-tert-Butyl-2-(3-chlorophenyl)-2H-pyrazol-3-yl]-methyl]-3-[4-(methanesulfonamido-methyl)-3-methoxy-phenyl]-urea], for which the Ki was 9 nM.
Same read-out and setting: the result for “4-[1-[[2-(3-Chlorophenyl)-5-(trifluoromethyl)-2H-pyrazol-3-yl]-methyl-carbamoyl]-ethyl]-2-fluoro-N-[4-(trifluoromethyl)-phenyl]-benzamide [Example E48]” reads 27 nM; that for `Cc1cccc(-n2nc(C(F)(F)F)cc2CNC(=O)Nc2ccc(CNS(C)(=O)=O)c(F)c2)c1` [Example B87, 1-[3-Fluoro-4-(methanesulfonamido-methyl)-phenyl]-3-[[2-(m-tolyl)-5-(trifluoromethyl)-2H-pyrazol-3-yl]-methyl]-urea], 15 nM.
Same read-out and setting: the result for `NS(=O)(=O)NCc1ccc(NC(=O)NCc2cc(C(F)(F)F)nn2-c2cccc(F)c2)cc1` [Example B77, 1-[[2-(3-Fluorophenyl)-5-(trifluoromethyl)-2H-pyrazol-3-yl]-methyl]-3-[4-[(sulfamoylamino)-methyl]-phenyl]-urea] reads 44 nM; that for `CC(C)c1cccc(-n2nc(C(F)(F)F)cc2CNC(=O)Nc2ccc(CNS(C)(=O)=O)c(F)c2)c1` [Example B73, 1-[3-Fluoro-4-(methanesulfonamido-methyl)-phenyl]-3-[[2-(3-isopropyl-phenyl)-5-(trifluoromethyl)-2H-pyrazol-3-yl]-methyl]-urea], 3 nM; that for “4-[1-[[5-tert-Butyl-2-(3-chlorophenyl)-2H-pyrazol-3-yl]-methyl-carbamoyl]-ethyl]-2-fluoro-N-phenyl-benzamide [Example E29]”, 5 nM.
Same read-out and setting: the result for `CC(C(=O)NCc1cc(C(C)(C)C)nn1-c1ccc(F)c(Cl)c1)c1ccc(CS(C)(=O)=O)c(F)c1` (centres unmarked) [Example D8, N-[[5-tert-Butyl-2-(3-chloro-4-fluoro-phenyl)-2H-pyrazol-3-yl]-methyl]-2-[3-fluoro-4-(methylsulfonyl-methyl)-phenyl]-propionamide] reads 48 nM.

For the origin of these results see patent publication US9624209B2, “Substituted phenylureas and phenylamides as vanilloid receptor ligands” (Gruenenthal GmbH, priority 2009, dated 2017).
